Experimental data from patent publication US20080318892A1, “METHODS AND FORMULATIONS FOR PROTECTING CELLS, AND FOR TREATING DISEASES AND CONDITIONS BY OPTIMIZING THE INTRACELLULAR CONCENTRATION OF NAD” (priority 2007, published 2008).

Legend:
Nampt = molecular target: T1, Nampt (Homo sapiens, UniProt P43490); test: Nicotinamide phosphoribosyltransferase (Nampt/PBEF) activity in SMC lysates, [14C]nicotinamide to NMN; assay type: cell-based
T1 construct: endogenous in cells; host or cells: human vascular SMCs (primary and HITC6), whole cell lysates
Procedure: Nicotinamide Phosphoribosyltransferase Activity. […] Labelled acetone-precipitable nicotinamide mononucleotide was quantified by scintillation counting.
Assessment of Nicotinamide Phosphoribosyltransferase Activity. […] Briefly, SMCs were lysed in buffer containing 10 mM NaH2PO4/Na2HPO4, at pH 8.8. Cell lysates were incubated with 0.5 μM [carbonyl-^14C]nicotinamide and 0.5 mM phosphoribosylpyrophosphate for 4 h on a rotating rocker at 37° C.

SIRT1 = SIRT1 deacetylase activity in live SMCs (Fluor de Lys-SIRT1 substrate, TSA-independent); assay type: cell-based, human; details: HITC6 SMCs incubated with 10 nM FK866, 48 h
Procedure: In vivo assessment of SIRT1 deacetylase activity. Cell-based assessment of SIRT1-like enzymatic activity was performed using the Fluor de lys-SIRT1 substrate (Biomol, Plymouth Meeting, Pa.), as previously described (de Boer, 2006). SMCs in phenol-red free M199 with 5% FBS were incubated for 2 h with 5 μM TSA followed by addition of the fluorogenic substrate for 4 h. Signal was quantified by spectrofluorimetry (Wallac, Wellesley, Mass.) and normalized to total protein content.
Assessment of SIRT1 Deacetylase Activity. SIRT1 deacetylase activity was quantified in live cells as previously reported (de Boer et al, 2006). SMCs cultured in phenol red-free M199 were incubated without serum for 2 h with 1 μM trichostatin A (Sigma, St. Louis, Mo., USA) followed by addition of 25 μM Fluor-de-Lys-SIRT1 fluorogenic substrate (Biomol, Plymouth Meeting, Pa., USA) for 4 h. Media containing fluorogenic substrate and reaction product was incubated with an equal volume of SIRT1 assay buffer containing 2 mM nicotinamide and developer (Biomol, Plymouth Meeting, Pa., USA). Signal was quantified by spectrofluorometry (Wallac VICTOR-1420, PerkinElmer Life Science, Waltham, Mass., USA) and normalized to total protein content

HITC6 SMCs = test: Senescence-associated beta-galactosidase activity / senescence-free survival; assay type: cell-based, human; details: successive subcultures incubated with 10 nM FK866; p<0.0001
Procedure: Senescence-associated β-Galatosidase Activity Assay. SMCs on glass coverslips at approximately 70% confluence were fixed in 2% formaldehyde/0.2% glutaraldehyde in PBS for 3 minutes and incubated with X-gal-containing reaction mixture, as previously described (Dimri, 1995). Washed cells were stained with Hoechst 33258 (2.5 μg/ml) and the proportion of senescence-associated β-galactosidase (SA β-Gal)-positive cells quantified from 10 microscope fields of view (Olympus BX51, ×20 objective, approximately 1200 cells). Senescence-free survival was determined using Kaplan-Meier analysis of survival vs. replicative age.
Senescence-associated Beta-galactosidase Activity. Senescence-associated beta-galactosidase (SA-β-gal) activity was determined as previously described (Dimri et al, 1995). Briefly, SMCs were fixed in PBS containing 2% formaldehyde/0.2% glutaraldehyde for 3 min at room temperature. Fixed cells were then incubated for 4-6 h at 37° C. with SA-β-gal stain solution containing 150 mM NaCl, 2 mM MgCl, 40 mM citrate, 5 mM potassium ferrocyanide, 5 mM potassium ferricyanide, and 1 mg/ml of 5-bromo-4-chloro-3-indolyl-β-D-galactopyranoside (X-gal) (Invitrogen, Carlsbad, Calif., USA), at pH 6.0. SMCs were counterstained with 2.5 μg/ml Hoechst 33258 to detect cell nuclei. The proportion of SA-β-gal activity positive cells was quantified using light and fluorescence microscopy (Olympus BX51, Center Valley, Pa., USA).

T1 sequence (P43490 whole entry): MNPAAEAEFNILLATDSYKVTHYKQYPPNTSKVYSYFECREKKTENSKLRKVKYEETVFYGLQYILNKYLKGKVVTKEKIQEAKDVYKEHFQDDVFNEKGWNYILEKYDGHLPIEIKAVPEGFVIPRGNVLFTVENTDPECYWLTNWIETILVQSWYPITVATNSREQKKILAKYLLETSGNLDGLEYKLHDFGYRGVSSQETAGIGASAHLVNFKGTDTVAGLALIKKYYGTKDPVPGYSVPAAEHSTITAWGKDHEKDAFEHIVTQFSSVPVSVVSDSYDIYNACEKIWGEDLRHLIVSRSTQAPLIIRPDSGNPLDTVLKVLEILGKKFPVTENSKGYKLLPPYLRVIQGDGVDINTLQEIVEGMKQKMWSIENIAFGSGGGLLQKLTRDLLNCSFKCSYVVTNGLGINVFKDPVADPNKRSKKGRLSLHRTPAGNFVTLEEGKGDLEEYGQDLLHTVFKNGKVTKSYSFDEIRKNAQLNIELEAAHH

PBEF activity in SMCs, % of baseline (Nampt; 10 nM FK866): 22±2%
Nampt activity relative to basal level (Nampt; SMCs incubated with 10 nM FK866, p<0.001): 0.11±0.05
SIRT1 activity (SIRT1): substantial loss
Structure (SMILES): O=C(/C=C/c1cccnc1)NCCCCC1CCN(C(=O)c2ccccc2)CC1 [FK866, reference compound]
senescence-free survival (Kaplan-Meier) (HITC6 SMCs): substantially shortened
